The nature of one data set: Pharmacokinetics in mice. Type of data set: in vivo. As to conditions: male C57BI/6 mice. As for the experimental part:
N,N-dimethyl-4-((6-oxopyrimidin-1(6H)-yl)methyl)benzamide was administered to male C57BI/6 mice intravenously (2 mg/kg) or orally (10 mg/kg) by gavage. Whole blood diluted with water was prepared from these dosed animals over a time course up to 24 hours post dose to allow blood concentrations of drug to be measured by UPLC-MS/MS.

The nature of data set [1]: Plasma protein binding, rat plasma (rapid equilibrium dialysis). As to conditions: 37° C. The class given is in vitro ADME. As for the experimental part:
(§1) The extent to which compounds of the invention bound to plasma proteins such as albumin and alpha-1 acid glycoprotein within human, rat or mouse plasma was determined by rapid equilibrium dialysis. Compounds were incubated at 5 μM for 4 hours at 37° C. Plasma protein binding for N,N-dimethyl-4-((6-oxopyrimidin-1(6H)-yl)methyl)benzamide in mouse plasma was 37.3%, in rat plasma was 14.8% and in human plasma was 30.6%.

The target in another data set is T1, human Siiyama A1AT (Homo sapiens, UniProt P01009, S77F).
T1 construct: expressed in transfected cells; host or cells: HEK-Siiyama (HEK-EBNA cells containing the Siiyama A1AT plasmid)
T1 sequence (P01009 25-418 S77F): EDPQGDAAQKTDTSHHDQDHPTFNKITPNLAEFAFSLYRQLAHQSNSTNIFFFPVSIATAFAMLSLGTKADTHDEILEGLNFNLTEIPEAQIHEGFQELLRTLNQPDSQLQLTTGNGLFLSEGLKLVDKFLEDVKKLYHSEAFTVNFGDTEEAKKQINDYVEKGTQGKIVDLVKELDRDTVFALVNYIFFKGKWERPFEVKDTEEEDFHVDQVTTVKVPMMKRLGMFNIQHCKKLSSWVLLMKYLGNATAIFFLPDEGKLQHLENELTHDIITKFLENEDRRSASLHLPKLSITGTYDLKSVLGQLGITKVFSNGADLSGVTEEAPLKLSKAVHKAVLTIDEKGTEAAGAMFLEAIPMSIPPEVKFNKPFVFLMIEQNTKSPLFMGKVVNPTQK
Description: A1AT cell secretion assay using HEK-Siiyama cells (ELISA). The class given is cell-based. As to conditions: 1 or 10 μM, 48 h. The protocol:
HEK-Siiyama cells, a human embryonic kidney cell line stably transfected with the human Siiyama A1AT gene, were plated into 96 well plates (3.0×10^5 cells/ml with 200 μl of media/well) overnight at 37° C. in a humidified atmosphere containing 5% CO2. Following incubation cells were washed with 200 μl serum-free media three times and media was replaced with serum-free media containing either vehicle, 10 μM suberanilohydroxamic acid (SAHA) or a compound of the invention (at 1 or 10 μM) in replicates of eight for 48 h in a 37° C. incubator in a final volume of 200 μl. […]
Briefly, a 96 well plate was coated with human A1AT capture antibody overnight at room temperature (1:180 dilution from stock, 100 μl final volume/well). […] After which, 50 μl stop solution (2M H2SO4) was added and optical density (OD) of each well was read at 450 nm with 570 nm blank subtracted from each well using a microplate reader. A 4 parameter logistic curve was constructed using GraphPad Prism 7 and A1AT concentrations were determined in each sample by interpolation from a standard curve and multiplying by the appropriate dilution factor.
The amount of human A1AT secreted from transfected HEK-EBNA cells into the media was measured by ELISA. […]

Data set [2] can be described thus: Plasma protein binding, mouse plasma (rapid equilibrium dialysis). As to conditions: 37° C. Type of data set: in vitro ADME. The protocol:
as §1

[3] abbreviates: mouse, whole blood, iv 2 mg/kg or oral 10 mg/kg (route not stated), blood.

In the case of `CN(C)C(=O)c1ccc(Cn2cnccc2=O)cc1` [N,N-dimethyl-4-((6-oxopyrimidin-1(6H)-yl)methyl)benzamide], the “Oral Bioavailability (F, AUCINF)” value in the data set “Pharmacokinetics in mice” (oral 10 mg/kg vs iv 2 mg/kg) is on record as 73%. In the data set “Pharmacokinetics in mice” (setting [3]), this molecule returned an AUC of 15600 ng·h/mL and an AUC(0-inf) of 15600 ng·h/mL. In the data set “Pharmacokinetics in mice” (mouse, whole blood, iv 2 mg/kg or oral 10 mg/kg, read-out: Half-life in blood (t1/2) (converted)), the half-life is 1.9 h. In addition, the clearance in the data set “Pharmacokinetics in mice” (mouse, whole blood, iv 2 mg/kg or oral 10 mg/kg, read-out: Observed clearance) is 7.8 mL/min/kg. Besides, in “Pharmacokinetics in mice” (mouse, whole blood, iv 2 mg/kg or oral 10 mg/kg, read-out: Volume of distribution (Vz)), the Vd was 1.3 L/kg. This molecule displayed a Cmax in “Pharmacokinetics in mice” (mouse, whole blood, oral 10 mg/kg, blood) of 9310 ng/mL. In data set [1], this molecule showed a fraction unbound at 4 h, 5 μM of 0.852. Also, the “secretion of Siiyama A1AT as measured by ELISA” value at human Siiyama A1AT was “does not stimulate secretion of Siiyama A1AT”. In data set [2], the fraction unbound at 4 h, 5 μM was 0.627.

The values above are taken from patent publication US12221422B2, “Compounds and their use for the treatment of alpha1-antitrypsin deficiency” (CENTESSA PHARMACEUTICALS (UK) LIMITED, priority 2018, dated 2025).
